Results published in ChEMBL document CHEMBL1201862, “PubChem BioAssay data set” (2004).
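Briefly, cells in 96-well plates were exposed to five compound concentrations for 48 h, and endpoints were estimated by linear interpolation. GI50 marks 50% less growth.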 Activity calls are given as the source filed them. No stated cut-off is given here; in the data, active = GI50 up to about 1.1 µM and inactive = higher.

Experiments:
Assay in all cases: growth of human tumour cells (NCI), 48 h
DU-145 = system: DU-145
HOP-92 = system: HOP-92
HT-29 = system: HT-29
Hs-578T = system: Hs-578T
M14 = system: M14
MCF7 = system: MCF7
MDA-MB-435 = system: MDA-MB-435
MDA-N = system: MDA-N
Malme-3M = system: Malme-3M
NCI-H226 = system: NCI-H226
NCI-H23 = system: NCI-H23
NCI-H522 = system: NCI-H522
OVCAR-3 = system: OVCAR-3
SF-268 = system: SF-268
SW-620 = system: SW-620
T47D = system: T47D
UO-31 = system: UO-31
A498 = system: A498
HOP-62 = system: HOP-62

CN1CCN(C(=S)N(C(=O)c2ccc(Cl)cc2)c2ccccc2)CC1
GI50 (DU-145): > 100 µM (inactive)
GI50 (HOP-92): > 100 µM (inactive)
GI50 (HT-29): > 100 µM (inactive)
GI50 (Hs-578T): 34.5 µM (inactive)
GI50 (M14): > 100 µM (inactive)
GI50 (MCF7): > 100 µM (inactive)
GI50 (MDA-MB-435): > 100 µM (inactive)
GI50 (MDA-N): > 100 µM (inactive)
GI50 (Malme-3M): > 100 µM (inactive)
GI50 (NCI-H226): > 100 µM (inactive)
GI50 (NCI-H23): > 100 µM (inactive)
GI50 (NCI-H522): > 100 µM (inactive)
GI50 (OVCAR-3): > 100 µM (inactive)
GI50 (SF-268): > 100 µM (inactive)
GI50 (SW-620): > 100 µM (inactive)
GI50 (T47D): > 100 µM (inactive)
GI50 (UO-31): > 100 µM (inactive)

COc1cc(/C=C/c2ccc(O)c(OC)c2)cc(OC)c1
GI50 (A498): 21.6 µM (inactive)
GI50 (DU-145): 23.1 µM (inactive)
GI50 (HOP-62): 50.6 µM (inactive)
GI50 (HOP-92): 12.3 µM (inactive)
GI50 (HT-29): 30.8 µM (inactive)
GI50 (Hs-578T): 14.2 µM (inactive)
GI50 (M14): 21 µM (inactive)
GI50 (MCF7): 26.2 µM (inactive)
GI50 (MDA-N): 17.4 µM (inactive)
GI50 (Malme-3M): 30.7 µM (inactive)
GI50 (NCI-H23): 26.5 µM (inactive)
GI50 (SF-268): 34.4 µM (inactive)
GI50 (SW-620): 30.1 µM (inactive)
GI50 (T47D): 33.9 µM (inactive)
GI50 (UO-31): 20 µM (inactive)

Cc1c2ccnc(C(=O)NCCN(C)C)c2cc2c3cc(O)ccc3n(C)c12
GI50 (DU-145): 0.0649 µM (active)
GI50 (HOP-62): 0.0368 µM (active)
GI50 (HOP-92): 0.235 µM (active)
GI50 (HT-29): 0.479 µM (active)
GI50 (Hs-578T): 0.204 µM (active)
GI50 (M14): 0.215 µM (active)
GI50 (MCF7): 0.082 µM (active)
GI50 (MDA-MB-435): 0.282 µM (active)
GI50 (MDA-N): 0.286 µM (active)
GI50 (Malme-3M): 0.295 µM (active)
GI50 (NCI-H226): 0.177 µM (active)
GI50 (NCI-H23): 0.125 µM (active)
GI50 (NCI-H522): 0.236 µM (active)
GI50 (OVCAR-3): 0.357 µM (active)
GI50 (SF-268): 0.0676 µM (active)
GI50 (SW-620): 0.0931 µM (active)
GI50 (T47D): 0.321 µM (active)
GI50 (UO-31): 0.267 µM (active)

O=C1c2scc(-c3ccccc3)c2-n2cccc21
GI50 (A498): 1.72 µM (inactive)
GI50 (DU-145): 26.3 µM (inactive)
GI50 (HOP-62): 16.3 µM (inactive)
GI50 (HT-29): 10.9 µM (inactive)
GI50 (Hs-578T): 4.59 µM (inactive)
GI50 (M14): 18 µM (inactive)
GI50 (MCF7): 17.3 µM (inactive)
GI50 (MDA-MB-435): 14.5 µM (inactive)
GI50 (MDA-N): 16.1 µM (inactive)
GI50 (Malme-3M): 16.4 µM (inactive)
GI50 (NCI-H226): 10.2 µM (inactive)
GI50 (NCI-H522): 11.4 µM (inactive)
GI50 (OVCAR-3): 16.3 µM (inactive)
GI50 (SF-268): 14.3 µM (inactive)
GI50 (SW-620): 16.3 µM (inactive)
GI50 (T47D): 17.7 µM (inactive)
GI50 (UO-31): 22.5 µM (inactive)

CCOC(=O)c1cc(=O)oc2c1N(C)c1ncccc1N2
GI50 (A498): > 100 µM (inactive)
GI50 (DU-145): > 100 µM (inactive)
GI50 (HOP-62): > 100 µM (inactive)
GI50 (Hs-578T): > 100 µM (inactive)
GI50 (M14): > 100 µM (inactive)
GI50 (MCF7): > 100 µM (inactive)
GI50 (MDA-MB-435): > 100 µM (inactive)
GI50 (MDA-N): > 100 µM (inactive)
GI50 (NCI-H226): > 100 µM (inactive)
GI50 (NCI-H23): > 100 µM (inactive)
GI50 (OVCAR-3): > 100 µM (inactive)
GI50 (SF-268): > 100 µM (inactive)
GI50 (SW-620): > 100 µM (inactive)
GI50 (T47D): > 100 µM (inactive)
GI50 (UO-31): 50.9 µM (inactive)

Cc1ccc(-n2cc(-c3ccc(Cl)cc3)c3c2N=CN2N=C(c4cccs4)NC32)cc1 (stereo not drawn)
GI50 (A498): 14.7 µM (inactive)
GI50 (DU-145): > 100 µM (inactive)
GI50 (HOP-62): 15.7 µM (inactive)
GI50 (HOP-92): 7.64 µM (inactive)
GI50 (HT-29): 23 µM (inactive)
GI50 (Hs-578T): 2.07 µM (inactive)
GI50 (M14): 18.7 µM (inactive)
GI50 (MCF7): 32.5 µM (inactive)
GI50 (MDA-MB-435): 38.7 µM (inactive)
GI50 (MDA-N): 26.8 µM (inactive)
GI50 (Malme-3M): 38.4 µM (inactive)
GI50 (NCI-H226): 19.3 µM (inactive)
GI50 (NCI-H23): 15.3 µM (inactive)
GI50 (NCI-H522): 21.6 µM (inactive)
GI50 (OVCAR-3): 9.73 µM (inactive)
GI50 (SF-268): 17.8 µM (inactive)
GI50 (SW-620): 14.4 µM (inactive)
GI50 (UO-31): 7.64 µM (inactive)

Cn1ccc(C(=O)NCCCCCNC(=O)c2ccn(C)c(=O)c2O)c(O)c1=O
GI50 (A498): > 100 µM (inactive)
GI50 (DU-145): > 100 µM (inactive)
GI50 (HOP-92): > 100 µM (inactive)
GI50 (HT-29): > 100 µM (inactive)
GI50 (Hs-578T): > 100 µM (inactive)
GI50 (MDA-MB-435): > 100 µM (inactive)
GI50 (MDA-N): > 100 µM (inactive)
GI50 (Malme-3M): > 100 µM (inactive)
GI50 (NCI-H226): > 100 µM (inactive)
GI50 (NCI-H23): > 100 µM (inactive)
GI50 (NCI-H522): > 100 µM (inactive)
GI50 (SF-268): > 100 µM (inactive)
GI50 (SW-620): > 100 µM (inactive)
GI50 (T47D): > 100 µM (inactive)
GI50 (UO-31): > 100 µM (inactive)

CCC1(O)CC(OC2CC(N(C)C)C(OC3CC(O)C(OC4CCC(=O)C(C)O4)C(C)O3)C(C)O2)c2c(O)c3c(c(O)c2C1C(=O)OC)C(=O)c1cccc(O)c1C3=O (stereo not drawn)
GI50 (DU-145): 0.00689 µM (active)
GI50 (HOP-62): 0.0106 µM (active)
GI50 (HOP-92): 0.0344 µM (active)
GI50 (HT-29): 0.00445 µM (active)
GI50 (Hs-578T): 0.00221 µM (active)
GI50 (M14): 0.01 µM (active)
GI50 (MCF7): 0.01 µM (active)
GI50 (MDA-MB-435): 0.0067 µM (active)
GI50 (MDA-N): 0.00482 µM (active)
GI50 (Malme-3M): 0.0125 µM (active)
GI50 (NCI-H226): 0.0126 µM (active)
GI50 (NCI-H23): 0.00589 µM (active)
GI50 (NCI-H522): 0.00385 µM (active)
GI50 (OVCAR-3): 0.0155 µM (active)
GI50 (SF-268): 0.0316 µM (active)
GI50 (SW-620): 0.00171 µM (active)
GI50 (T47D): 0.0154 µM (active)
GI50 (UO-31): 0.00508 µM (active)
